Data taken from patent US11415579B2, “Assay for measuring a rate of reaction between a target and a ligand candidate” (Imperial College Innovations Ltd., priority 2016, dated 2022).

Experiments:
[1] = target: T1, Cdk2[C177A, F80C, K278C] (Homo sapiens, UniProt P24941, C177A/F80C/K278C); test: Kinetic thiol consumption assay with mutant Cdk2 as model thiol; type: binding; set-up: unit not given here; settings: 500 μM ligand, 5 μM thiol, phosphate buffer pH 8
T1 construct: poly-histidine; made in house; host or cells: E. coli
Procedure: A library of 120 acrylamides was screened against a) human cyclin-dependent kinase 2 (Cdk2, which contains one surface exposed cysteine residue—C177), prepared by cloning cDNA into the pRSETA bacterial expression vector to generate a poly-histidine tagged Cdk2 fusion that was purified from E. coli using standard techniques, and b) a model thiol (specific details are given below). The structures of these 120 acrylamides are set out in Table 1, above.
To wells containing 150 μL thiol (Cdk2 or model thiol) (5 μM) in degassed phosphate buffer (pH 8) was added immobilized TCEP beads (2% v/v).
After incubation of the fluorescence plates for 1 hour at room temperature, fluorescence measurements (excitation/emission of 380/470 nm) were taken on a PerkinElmer EnVision multilabel plate reader and processed with EnVision Workstation version 1.12.
Fluorescence measurements were normalized against a DMSO/thiol only control and plotted against time.
Rate constants were calculated using GraphPad software Prism version 6 by fitting a first order exponential decay to the data. The rate constant for each acrylamide with Cdk2 was divided by the rate constant for that fragment with the model thiol to provide the rate enhancement for each ligand candidate.
The model thiol used in Example 2 is a mutant form of human Cdk2 (C177A, F80C, K278C) which contains two engineered surface exposed cysteine residues. Mutations were introduced by site-directed mutagenesis and the resulting cDNA was cloned into the pRSETA bacterial expression vector to generate a poly-histidine tagged Cdk2 fusion that was purified from E. coli using standard techniques.

[2] = target: T2, human cyclin-dependent kinase 2 (Cdk2) (Homo sapiens, UniProt P24941); test: Kinetic thiol consumption assay with wild type Cdk2 (C177); type: binding; set-up: key to Rate enhancement, Cdk2 WT: k(Cdk2) divided by k(model thiol); Rate constant with Cdk2 (k(Cdk2)): unit not given here; settings: for Rate constant with Cdk2 (k(Cdk2)): 500 μM ligand, 5 μM thiol, phosphate buffer pH 8; for k(Cdk2)/k(Cdk2_mut) rate enhancement: model thiol Cdk2[C177A, F80C, K278C]; for k(Cdk2)/k(GSH) rate enhancement: model thiol glutathione
T2 construct: poly-histidine; made in house; host or cells: E. coli
Summary of the method: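 Thiol 5 μM (Cdk2 or model thiol), degassed phosphate buffer pH 8, TCEP beads 2% v/v. Plates incubated 1 h RT, ex/em 380/470 nm. First-order decay fit → rate constant; ratio Cdk2/model thiol = rate enhancement.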

[3] = Kinetic thiol consumption assay with model thiol glutathione; type: physicochemical; set-up: Rate constant with glutathione (k(GSH)): unit not given here; settings: 500 μM ligand, 5 μM thiol, phosphate buffer pH 8
Summary of the method: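 Rate constants for acrylamide reaction with 5 μM glutathione come from first-order exponential fits of normalized fluorescence decay (ex 380, em 470 nm). Reactions run in degassed phosphate buffer at pH 8 containing TCEP beads, room temperature.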

[4] = target: T3, Cdk2(T182C) (C177A) (Homo sapiens, UniProt P24941, C177A/T182C); test: Kinetic thiol consumption assay with Cdk2 mutant T182C; type: binding; set-up: key to Rate enhancement, Cdk2 T182C: rate constant with Cdk2 ÷ rate constant with model thiol (fold); settings: additional mutation C177A
T3 construct: poly-histidine; made in house; host or cells: E. coli
Summary of the method: (§1)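 Thiol consumption was monitored kinetically using 5 μM Cdk2 (C177A plus one introduced cysteine) in degassed phosphate buffer at pH 8 with TCEP beads. Plates were kept 1 h at room temperature before fluorescence reading, and rate constants came from exponential decay fitting.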

[5] = target: T4, Cdk2(S276C) (C177A) (Homo sapiens, UniProt P24941, C177A/S276C); test: Kinetic thiol consumption assay with Cdk2 mutant S276C; type: binding; set-up: key to Rate enhancement, Cdk2 S276C: rate constant with Cdk2 ÷ rate constant with model thiol (fold); settings: additional mutation C177A
T4 construct: poly-histidine; made in house; host or cells: E. coli
Summary of the method: as §1

[6] = target: T5, Cdk2(S181C) (C177A) (Homo sapiens, UniProt P24941, C177A/S181C); test: Kinetic thiol consumption assay with Cdk2 mutant S181C; type: binding; set-up: key to Rate enhancement, Cdk2 S181C: rate constant with Cdk2 ÷ rate constant with model thiol (fold); settings: additional mutation C177A
T5 construct: poly-histidine; made in house; host or cells: E. coli
Summary of the method: as §1

[7] = target: T6, Cdk2(C177A, F80C) (Homo sapiens, UniProt P24941, C177A/F80C); test: Kinetic thiol consumption assay with Cdk2 mutant F80C, incl. kobs versus concentration (Kd, k2); type: binding; set-up: key to Rate enhancement, Cdk2 F80C: Cdk2 rate constant divided by model-thiol rate constant; settings: additional mutation C177A
T6 construct: poly-histidine; made in house; host or cells: E. coli
Summary of the method: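 His-tagged Cdk2(C177A/F80C) from E. coli or model thiol, 5 μM in degassed phosphate buffer pH 8 with TCEP beads, reacted with acrylamide ligands; fluorescence (ex/em 380/470 nm) normalized to DMSO control and fitted to first-order decay for kobs. Kd and k2 obtained from hyperbolic fit of kobs versus ligand concentration.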

[8] = target: T7, Cdk2(H71C) (C177A) (Homo sapiens, UniProt P24941, C177A/H71C); test: Kinetic thiol consumption assay with Cdk2 mutant H71C; type: binding; set-up: key to Rate enhancement, Cdk2 H71C: rate constant with Cdk2 ÷ rate constant with model thiol (fold); settings: additional mutation C177A
T7 construct: poly-histidine; made in house; host or cells: E. coli
Summary of the method: as §1

[9] = target: T8, Cdk2(N272C) (C177A) (Homo sapiens, UniProt P24941, C177A/N272C); test: Kinetic thiol consumption assay with Cdk2 mutant N272C; type: binding; set-up: key to Rate enhancement, Cdk2 N272: rate constant with Cdk2 ÷ rate constant with model thiol (fold)
T8 construct: poly-histidine; made in house; host or cells: E. coli
Summary of the method: as §1

[10] = target: T9, Cdk2(R122C) (C177A) (Homo sapiens, UniProt P24941, C177A/R122C); test: Kinetic thiol consumption assay with Cdk2 mutant R122C; type: binding; set-up: key to Rate enhancement, Cdk2 R122C: rate constant with Cdk2 ÷ rate constant with model thiol (fold); settings: additional mutation C177A
T9 construct: poly-histidine; made in house; host or cells: E. coli
Summary of the method: as §1

Structure (SMILES) | Rate constant with Cdk2[C177A, F80C, K278C] (k(Cdk2_mut)) [1] | Rate constant with Cdk2 (k(Cdk2)) [2] | k(Cdk2)/k(Cdk2_mut) rate enhancement [2] | k(Cdk2)/k(GSH) rate enhancement [2] | Rate constant with glutathione (k(GSH)) [3] | also measured
C=CC(=O)N(C1CC1)C1CCCCC1C1CCCCC1 (stereo not drawn) [CA-081] | 0.00475 | 0.00879 | 1.851 | 5.108 | 0.00172 | 
C=CC(=O)N1CCCCCC1C/C=C/c1ccccc1 (stereo not drawn) [CA-096] | 0.01283 | 0.0034 | 0.2652 | 0.3001 | 0.01134 | 
C=CC(=O)N(Cc1ccco1)Cc1ccco1 [CA-099] | 0.0159 | 0.2899 | 18.23 | 1.26 | 0.23 | 
C=CC(=O)N1CCC2(CC1)NC(=O)C1(CCCCC1)N2 [CA-129] | 0.00208 | 0.00274 | 1.317 | 0.3553 | 0.00771 | 
C=CC(=O)Nc1ccccc1C#N [EL-1178] | 0.165 | 0.1611 | 0.9764 |  |  | Rate enhancement, Cdk2 T182C ([4]; Cdk2 T182C): 5.018; Rate constant with Cdk2 T182C ([4]; Protein: Cdk2, cysteine position T182C, in h^-1): 0.2419; Rate enhancement, Cdk2 S276C ([5]; Cdk2 S276C): 0.934; Rate constant with Cdk2 S276C ([5]; Protein: Cdk2, cysteine position S276C, in h^-1): 0.04503; Rate enhancement, Cdk2 S181C ([6]; Cdk2 S181C): 0.5323; Rate constant with Cdk2 S181C ([6]; Protein: Cdk2, cysteine position S181C, in h^-1): 0.02566; Rate enhancement, Cdk2 WT ([2]; Cdk2 WT, no additional mutations): 3.342; Rate constant with Cdk2 WT ([2]; Protein: Cdk2, cysteine position WT, in h^-1): 0.1611; Rate enhancement, Cdk2 F80C ([7]; Cdk2 F80C): 1.938; Rate constant with Cdk2 F80C ([7]; Protein: Cdk2, cysteine position F80C, in h^-1): 0.09345; Rate enhancement, Cdk2 H71C ([8]; Cdk2 H71C): 0.5613; Rate constant with Cdk2 H71C ([8]; Protein: Cdk2, cysteine position H71C, in h^-1): 0.02706; Rate enhancement, Cdk2 N272 ([9]; Cdk2 N272, additional mutation C177A): 0.1844; Rate constant with Cdk2 N272C ([9]; Protein: Cdk2, cysteine position N272C, additional mutation C177A, in h^-1): 0.008888; Rate enhancement, Cdk2 R122C ([10]; Cdk2 R122C): 0.491; Rate constant with Cdk2 R122C ([10]; Protein: Cdk2, cysteine position R122C, in h-1): 0.02367
